Experimental data taken from patent US9486475B2 (AMGEN RESEARCH (MUNICH) GMBH, priority 2013, dated 2016).

Experiments:
follicular lymphoma = test: Blinatumomab treatment of patient 109-036 (follicular lymphoma): CT tumor response; assay type: in vivo, human; conditions: Blinatumomab 5 μg/m^2/24 h for 1 week, then 60 μg/m^2/24 h, with PPS
Description: (§1) Patient was then treated for 7 weeks at 60 μg/m^2/24 h of Blinatumomab.
(§2) 6× CHOP 12/02-04/03 • 2. Induction according to Dexa-BEAM Protocol 05/03 • 3. Autologous SCT 08/03 • Date of last prior treatment: 08/03 • Treatment start: 10.5.2010 • Major Involvement: • 1. Supraclavicular • 2. Mediastinal • 3. Mesenterial (small intestinal involvement?) • 4W CT: PR -63% • 8W CT: CRu:-79% • EOS: 30.7.2010
(FL: follicular lymphoma, SCT: stem cell therapy, PR: partial remission, Cru: complete remission (unconfirmed), EOS: end of study).

B cell malignancies = conditions: human, in vivo; cited from earlier work
non-Hodgkin's lymphoma = conditions: cited from earlier work
[1] = system: neurological adverse effects caused by a CD3 binding domain; test: PPS co-treatment of patient 109-036 during Blinatumomab start and dose escalation: neurological adverse effects; assay type: in vivo, human
Description: as §1, §2

[2] = continuous administration, non-Hodgkin's lymphoma patients

| Substance | 4W CT: change (follicular lymphoma; 4 weeks) | 8W CT: change (follicular lymphoma; 8 weeks) | 8W CT: response category (follicular lymphoma; 8 weeks) | Patients with an early neurological reaction (B cell malignancies) | Dose level at which partial and complete tumor regressions were first observed (non-Hodgkin's lymphoma; [2]) | Effect on tumor cells in bone marrow and liver (non-Hodgkin's lymphoma; [2]) | Patients who experienced a tumor regression (non-Hodgkin's lymphoma; dose level of 0.06 milligrams/m^2/d) | Effect on lymphoma target cells in blood (non-Hodgkin's lymphoma; doses as low as 0.005 milligrams per square meter per day, continuous, four weeks) | Neurological reactions in the clinical trial (non-Hodgkin's lymphoma; human, in vivo) | Apraxia and aphasia ([1]; patient 109-036, low B:T cell ratio, PPS 100 mg i.v. bolus 3 h before treatment start and before dose increase (day 8), then 300 mg/24 h for 48 h, Blinatumomab 5 then 60 μg/m^2/24 h) | Tremor (remaining neurological adverse effect) ([1]; patient 109-036, PPS 100 mg i.v. bolus then 300 mg/24 h for 48 h, Blinatumomab escalation to 60 μg/m^2/24 h) |
| --- | --- | --- | --- | --- | --- | --- | --- | --- | --- | --- | --- |
| Blinatumomab | -63% | -79% | CRu | 7 out of 22 | 0.015 milligrams/m^2/d | clearance of tumor cells from bone marrow and liver | all seven | elimination of lymphoma target cells in blood | neurological reactions have been found | – | – |
| β-D-Xylan, (1-4), 2,3-bis(hydrogen sulphate) [PPS] | – | – | – | – | – | – | – | – | – | prevented | slight tremor |
